Experiments:
ABUTH = test: Pre-emergence herbicidal activity on ABUTH (velvetleaf); format: in vivo, Abutilon theophrasti; details: racemic mixture vs enantiomers test; rates tested 1000, 650, 300, 200, 100, 65, 30 and 10 g/ha; lowest rate with 80% or greater inhibition
Method in brief: (§1)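 GR80 values come from percent inhibition relative to untreated plants, rated roughly 14 days after planting and treating, with rates up to typically 1000 g/ha. Compound was sprayed onto the soil over freshly covered seeds as a dilution in 50:50 acetone/water; pots kept in greenhouse at 30/21° C. day/night after 0.64 cm overhead watering.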

SOLNI = test: Pre-emergence herbicidal activity on SOLNI (black nightshade); format: in vivo, Solanum nigrum; details: racemic mixture vs enantiomers test; rates tested 1000, 650, 300, 200, 100, 65, 30 and 10 g/ha; lowest rate with 80% or greater inhibition
Method in brief: as §1

AMARE = test: Pre-emergence herbicidal activity on AMARE (redroot pigweed); format: in vivo, Amaranthus retroflexus; details: racemic mixture vs enantiomers test; rates tested 1000, 650, 300, 200, 100, 65, 30 and 10 g/ha; lowest rate with 80% or greater inhibition
Method in brief: as §1

DATST = test: Pre-emergence herbicidal activity on DATST (jimsonweed); format: in vivo, Datura stramonium; details: racemic mixture vs enantiomers test; rates tested 1000, 650, 300, 200, 100, 65, 30 and 10 g/ha; lowest rate with 80% or greater inhibition
Method in brief: as §1

CHEAL = test: Pre-emergence herbicidal activity on CHEAL (common lambsquarters); format: in vivo, Chenopodium album; details: racemic mixture vs enantiomers test; rates tested 1000, 650, 300, 200, 100, 65, 30 and 10 g/ha; lowest rate with 80% or greater inhibition
Method in brief: as §1

CONAR = test: Pre-emergence herbicidal activity on CONAR (field bindweed); format: in vivo, Convolvulus arvensis; details: racemic mixture vs enantiomers test; rates tested 1000, 650, 300, 200, 100, 65, 30 and 10 g/ha; lowest rate with 80% or greater inhibition
Method in brief: as §1

POROL = test: Pre-emergence herbicidal activity on POROL (common purslane); format: in vivo, Portulaca oleracea; details: racemic mixture vs enantiomers test; rates tested 1000, 650, 300, 200, 100, 65, 30 and 10 g/ha; lowest rate with 80% or greater inhibition
Method in brief: as §1

CIRAR = test: Pre-emergence herbicidal activity on CIRAR (canada thistle, seedling); format: in vivo, Cirsium arvense; details: racemic mixture vs enantiomers test; rates tested 1000, 650, 300, 200, 100, 65, 30 and 10 g/ha; lowest rate with 80% or greater inhibition
Method in brief: as §1

ECHCG = test: Pre-emergence herbicidal activity on ECHCG (barnyardgrass); format: in vivo, Echinochloa crus-galli; details: racemic mixture vs enantiomers test; rates tested 1000, 650, 300, 200, 100, 65, 30 and 10 g/ha; lowest rate with 80% or greater inhibition
Method in brief: as §1

PANMI = test: Pre-emergence herbicidal activity on PANMI (wild proso millet); format: in vivo, Panicum miliaceum; details: racemic mixture vs enantiomers test; rates tested 1000, 650, 300, 200, 100, 65, 30 and 10 g/ha; lowest rate with 80% or greater inhibition
Method in brief: as §1

SORHA = test: Pre-emergence herbicidal activity on SORHA (johnsongrass, seedling); format: in vivo, Sorghum halepense; details: racemic mixture vs enantiomers test; rates tested 1000, 650, 300, 200, 100, 65, 30 and 10 g/ha; lowest rate with 80% or greater inhibition
Method in brief: as §1

SETFA = test: Pre-emergence herbicidal activity on SETFA (giant foxtail); format: in vivo, Setaria faberi; details: racemic mixture vs enantiomers test; rates tested 1000, 650, 300, 200, 100, 65, 30 and 10 g/ha; lowest rate with 80% or greater inhibition
Method in brief: as §1

PANDI = test: Pre-emergence herbicidal activity on PANDI (fall panicum); format: in vivo, Panicum dichotomiflorum; details: racemic mixture vs enantiomers test; rates tested 1000, 650, 300, 200, 100, 65, 30 and 10 g/ha; lowest rate with 80% or greater inhibition
Method in brief: as §1

SORVU = test: Pre-emergence herbicidal activity on SORVU (shattercane); format: in vivo, Sorghum vulgare; details: racemic mixture vs enantiomers test; rates tested 1000, 650, 300, 200, 100, 65, 30 and 10 g/ha; lowest rate with 80% or greater inhibition
From the text: All such uses, and the biological activity enabling such uses, are embraced by the term “herbicidal” herein. Tables 15 and 16 summarize results of tests conducted as described below to determine the pre-emergence herbicidal activity, in the form of a GR80 value, of illustrative compounds of this invention. […] Where herbicidal activity was evident but 80% inhibition was not achieved at the highest rate tested (typically 1000 g/ha), an asterisk (*) is shown in the following tables. Herbicidal activity evident in the form of symptoms of phytotoxicity, in the absence of at least 80% inhibition at any rate, is indicated in the tables by “phyto”. A blank cell in the following tables indicates no herbicidal or phytotoxic response at any rate tested.
(§2) The pre-emergence tests were conducted by the following procedure. Topsoil was sieved to pass through a 1.27 cm screen. Fertilizer was added to the topsoil and the mixture was then sterilized by heating. The topsoil mixture was placed in a pot and compacted to a depth of 1.0 to 1.25 cm from the top of the pot. Seeds of each of several monocotyledonous and dicotyledonous annual plant species were placed on top of the soil. Additional soil was subsequently placed over the seeds to level-fill the pot. A known amount of each test compound dissolved or suspended in an appropriate organic solvent was diluted with a 50:50 mix of acetone and water and applied to the surface of the soil. After treatment the plants were placed in a greenhouse with a 30/21° C. day/night temperature regime where they received 0.64 cm of overhead irrigation. All subsequent watering consisted of a light overhead mist and/or subirrigation as needed for germination and growth.
Approximately 14 days after planting and treating, the plants were observed and herbicidal efficacy recorded as percent inhibition by comparison with untreated plants.
The plant species usually regarded as weeds which were utilized in the tests are identified in the tables below according to the following legend, in which “d” indicates a dicotyledonous species and “m” a monocotyledonous species. All monocotyledonous species included in the tests herein are grasses.

BRAPP = test: Pre-emergence herbicidal activity on BRAPP (broadleaf signalgrass); format: in vivo, Brachiaria platyphylla; details: racemic mixture vs enantiomers test; rates tested 1000, 650, 300, 200, 100, 65, 30 and 10 g/ha; lowest rate with 80% or greater inhibition
Method in brief: as §1

DIGSA = test: Pre-emergence herbicidal activity on DIGSA (large crabgrass); format: in vivo, Digitaria sanguinalis; details: racemic mixture vs enantiomers test; rates tested 1000, 650, 300, 200, 100, 65, 30 and 10 g/ha; lowest rate with 80% or greater inhibition
Method in brief: as §1

[1] = tested on: monocotyledonous and dicotyledonous annual plant species; test: Greenhouse pre-emergence test, all species of the test taken together; format: in vivo; details: rates 1000 to 10 g/ha, all species of Tables 19 and 20
From the text: All such uses, and the biological activity enabling such uses, are embraced by the term “herbicidal” herein. […] Where herbicidal activity was evident but 80% inhibition was not achieved at the highest rate tested (typically 1000 g/ha), an asterisk (*) is shown in the following tables. Herbicidal activity evident in the form of symptoms of phytotoxicity, in the absence of at least 80% inhibition at any rate, is indicated in the tables by “phyto”. A blank cell in the following tables indicates no herbicidal or phytotoxic response at any rate tested.
as §2
Pre-emergence herbicidal activity of the compound of Example 5, a racemic mixture of R- and S-enantiomers of N,N′-(1,2-propanediylbis)-3-(trifluoromethyl) benzamide, was compared with that of the individual R- and S-enantiomers, the compounds of Examples 5a and 5b respectively. The procedure was exactly as described above. Rates tested were 1000, 650, 300, 200, 100, 65, 30 and 10 g/ha.
In a greenhouse pre-emergence test conducted according to the procedure described hereinabove, R—N,N′-(1,2-propanediylbis)-3-(trifluoromethyl)benzamide (the compound of Example 5a) was applied at 200 g/ha and acetochlor was applied at 100 g/ha, both individually and in combination.
In the same greenhouse pre-emergence test, R-2-fluoro-3-trifluoromethyl-N-[1-methyl-2-(3-trifluoromethyl)phenylcarbonylamino]ethylbenzamide (the compound of Example 13) was applied at 100 g/ha and acetochlor was applied at 100 g/ha, both individually and in combination.

CC(CNC(=O)c1cccc(C(F)(F)F)c1)NC(=O)c1cccc(C(F)(F)F)c1 (centres unmarked) [Example 5b]
Pre-emergence activity (GR80) ABUTH (ABUTH): [empty]
Pre-emergence activity (GR80) SOLNI (SOLNI): [empty]
Pre-emergence activity (GR80) AMARE (AMARE): [empty]
Pre-emergence activity (GR80) DATST (DATST): [empty]
Pre-emergence activity (GR80) CHEAL (CHEAL): [empty]
Pre-emergence activity (GR80) CONAR (CONAR): [empty]
Pre-emergence activity (GR80) PORAL (POROL): [empty]
Pre-emergence activity (GR80) CIRAR (CIRAR): [empty]
Pre-emergence activity (GR80) ECHCG (ECHCG): [empty]
Pre-emergence activity (GR80) PANMI (PANMI): [empty]
Pre-emergence activity (GR80) SORHA (SORHA): [empty]
Pre-emergence activity (GR80) SETFA (SETFA): [empty]
Pre-emergence activity (GR80) PANDI (PANDI): [empty]
Pre-emergence activity (GR80) SORVU (SORVU): [empty]
Pre-emergence activity (GR80) BRAPP (BRAPP): [empty]
Pre-emergence activity (GR80) DIGSA (DIGSA): [empty]
pre-emergence herbicidal activity (in words) [1]: completely inactive
